{"source": "patent US11053207B2", "about": "“Indoleamine-2,3-dioxygenase inhibitor and preparation method therefor” (SHANGHAI INSTITUTE OF ORGANIC CHEMISTRY, CHINESE ACADEMY OF …, priority 2014, dated 2021)", "key": {"[1]": {"assay": "Pharmacokinetics of compound 6 in rats (intragastric, intravenous)", "assay_type": "in vivo, SD rats", "details": "for Vd: read-out: Vss", "description": "6 SD rats, male, weight 180-200 g, intragastric or intravenous administration of compound 6 (Table 3):\nFor intragastric administration, the compound was formulated into a suspension with 1% MC, and for intravenous injection the compound was formulated with DMSO: 20% PEG400 (5:95). Fasting for 12 hours before the test, free drinking water. The rats were all fed 2 hours after administration.\nIntragastric administration: 0.25, 0.5, 1.0, 2.0, 4.0, 6.0, 8.0 and 24 h after administration;\nIntravenous administration: 5 min, 0.25, 0.5, 1.0, 2.0, 4.0, 6.0, 8.0 and 24 h after administration;\nAt the above set point, the venous blood was taken from the posterior venous plexus of the rat eyes, and placed in a EDTA-2K tube, centrifuged at 11000 rpm for 5 min, the plasma was separated and frozen in a −20° C. refrigerator.\nThe concentration of compound 6 in rat plasma was determined by LC/MS/MS.\nPharmacokinetic parameters after administration were calculated using the non-compartmental model of the WinNonlin 5.3 software (Pharsight, USA).\nPeak concentration Cmax and peak time Tmax are measured value;\nDrug area under the curve AUC0−t value: using trapezoidal method; AUC0−∞=AUC0−t+Ct/ke, Ct is the blood concentration at the last measurable time point, ke is the elimination rate constant;\nElimination half-life t1/2=0.693/ke;\nMean residence time MRT=AUMC/AUC.\nClearance rate CL=D/AUC0−∞;\nSteady state distribution volume Vss=CL×MRT\nAbsolute Bioavailability F=(AUCintragastric×Dintravenous)/(AUCintravenous×Dintragastric)×100%"}, "[2]": {"assay": "Pharmacokinetics of compound 6 in ICR mice after oral compound 13 (prodrug)", "assay_type": "in vivo", "details": "for AUMC0-inf / AUMC0-t / Kel / MRTPO: compound 6 in ICR mice after oral compound 13 30 mg/kg", "description": "Compound 13 was orally administered to ICR mice. Blood samples were collected at different time points. LC-MS/MS was used to determine the concentration of compound 6 in the plasma of mice after administration of the test substance, and the relevant pharmacokinetic parameters were calculated, the pharmacological properties of compound 6 in mice was investigated.\nExperimental design: 3 ICR mice, provided by Suzhou Zhaoyan New Drug Research and Development Co., Ltd.; the experiment was carried out according to Table 6.\nEach animal was anesthetized with isoflurane and thereafter about 25 μL of blood was collected through the eyepit, anticoagulated with EDTAK2, the collecting time points were: before administration of the test substance (0 hr) and 15 min, 30 min, 1 h, 2 h, 4 h, 6 h, 8 h and 24 h after administration of the test substance. Blood samples were collected and placed on ice and the plasma was centrifuged and separated within 1 hour (centrifugal conditions: 5000 rpm, 10 minutes, 4° C.). The collected plasma was stored at −20° C. before analysis.\nData acquisition and control system software was the Analyst1.5.1 software (Applied Biosystem). The sample peak integral method was automatic integration; The ratio of the peak area of the sample and the peak area of the internal standard was taken as the index and the concentration of the sample was regressed. Regression method: linear regression, the weight coefficient was 1/X^2. Pharmacokinetic parameters were analyzed with a non-compartmental model using WinNonlin Professional v6.3 (Pharsight, USA). Cmax is the measured maximum blood concentration, and the area under the blood concentration-time curve AUC(0→t) was calculated from the trapezoidal method, and Tmax is the peak blood concentration time after administration. The experimental data is expressed as “mean±SD, n≥3” or “mean” (mean, n=2)."}, "[3]": {"details": "intragastric 10 mg/kg, individual rat"}, "[4]": {"details": "intravenous 1 mg/kg, individual rat"}, "[5]": {"details": "male, SD, rat, plasma, iv, 1 mg/kg, intravenous 1 mg/kg, individual rat"}, "[6]": {"details": "male, SD, rat, plasma, iv, 1 mg/kg, intravenous 1 mg/kg, mean"}, "[7]": {"details": "male, SD, rat, plasma, po, 10 mg/kg, intragastric 10 mg/kg, individual rat"}, "[8]": {"details": "male, SD, rat, plasma, po, 10 mg/kg, intragastric 10 mg/kg, mean"}}, "note": "“And” between values parts separate entries of the source, which are not always exact repeats. Identical values can stand only once. Like-named read-outs stand apart in the source and are kept apart here.", "data": [{"smiles": "CS(=O)(CCNc1nonc1/C(=N/O)Nc1ccc(F)c(Br)c1)=NC#N", "note": "(racemic) [compound 6, (±)(Z)—N-(3-bromo-4-fluorophenyl)-N′-hydroxy-4-((2-(thio-methylsulfoxidecyanoimine)ethyl)amino)-1,2,5-oxadiazole-3-carboxamidine]", "values": [{"measurement": "AUC0-t", "setting": "[1]; [3]", "value": "2817 ng·h/mL and 2795 ng·h/mL"}, {"measurement": "AUC0-∞", "setting": "[1]; [3]", "value": "3007 ng·h/mL and 3008 ng·h/mL"}, {"measurement": "Cmax", "setting": "[1]; [3]", "value": "854 ng/mL and 659 ng/mL"}, {"measurement": "MRT", "setting": "[1]; [3]", "value": "3.27 h and 3.47 h"}, {"measurement": "Tmax", "setting": "[1]; [3]", "value": 1.00, "unit": "h"}, {"measurement": "t1/2", "setting": "[1]; [3]", "value": 1.80, "unit": "h"}, {"measurement": "AUC0-t", "setting": "[1]; intragastric 10 mg/kg, mean", "value": 2651, "unit": "ng·h/mL"}, {"measurement": "AUC0-t", "setting": "[1]; [4]", "value": "505 ng·h/mL and 547 ng·h/mL"}, {"measurement": "AUC0-∞", "setting": "[1]; [4]", "value": "534 ng·h/mL and 555 ng·h/mL"}, {"measurement": "CL", "setting": "[1]; [4]", "value": "31.2 mL/min/kg and 30 mL/min/kg"}, {"measurement": "MRT", "setting": "[1]; [4]", "value": "2.03 h and 1.67 h"}, {"measurement": "Vss", "setting": "[1]; [4]", "value": "3.79 L/kg and 3.02 L/kg"}, {"measurement": "t1/2", "setting": "[1]; [4]", "value": "2.51 h and 1.32 h"}, {"measurement": "AUC0-t", "setting": "[1]; intravenous 1 mg/kg, mean", "value": 533, "unit": "ng·h/mL"}, {"measurement": "CL", "setting": "[1]; intravenous 1 mg/kg, mean", "value": 30.3, "unit": "mL/min/kg"}, {"measurement": "AUC(0-inf)", "setting": "[1]; [5]", "value": 563, "unit": "ng·h/mL"}, {"measurement": "clearance", "setting": "[1]; [5]", "value": 29.7, "unit": "mL/min/kg"}, {"measurement": "half-life", "setting": "[1]; [5]", "value": 1.71, "unit": "h"}, {"measurement": "AUC0-t", "setting": "[1]; male, SD, rat, plasma, iv, 1 mg/kg, intravenous 1 mg/kg, individual rat, read-out: AUC0-t", "value": 546, "unit": "ng·h/mL"}, {"measurement": "MRT", "setting": "[1]; male, SD, rat, plasma, iv, 1 mg/kg, intravenous 1 mg/kg, individual rat, read-out: MRT", "value": 1.91, "unit": "h"}, {"measurement": "Vd", "setting": "[1]; [5]", "value": 3.39, "unit": "L/kg"}, {"measurement": "AUC(0-inf)", "setting": "[1]; [6]", "value": 551, "unit": "ng·h/mL"}, {"measurement": "clearance", "setting": "[1]; [6]", "value": 30.3, "unit": "mL/min/kg"}, {"measurement": "half-life", "setting": "[1]; [6]", "value": 1.85, "unit": "h"}, {"measurement": "AUC0-t", "setting": "[1]; male, SD, rat, plasma, iv, 1 mg/kg, intravenous 1 mg/kg, mean, read-out: AUC0-t", "value": 533, "unit": "ng·h/mL"}, {"measurement": "MRT", "setting": "[1]; male, SD, rat, plasma, iv, 1 mg/kg, intravenous 1 mg/kg, mean, read-out: MRT", "value": 1.87, "unit": "h"}, {"measurement": "Vd", "setting": "[1]; [6]", "value": 3.4, "unit": "L/kg"}, {"measurement": "bioavailability", "setting": "[1]; male, SD, rat, plasma, oral, intragastric 10 mg/kg vs intravenous 1 mg/kg, dose normalized, read-out: F (absolute bioavailability)", "value": 49.8, "unit": "%"}, {"measurement": "AUC(0-inf)", "setting": "[1]; [7]", "value": 2480, "unit": "ng·h/mL"}, {"measurement": "half-life", "setting": "[1]; [7]", "value": 1.58, "unit": "h"}, {"measurement": "AUC0-t", "setting": "[1]; male, SD, rat, plasma, po, 10 mg/kg, intragastric 10 mg/kg, individual rat, read-out: AUC0-t", "value": 2340, "unit": "ng·h/mL"}, {"measurement": "Cmax", "setting": "[1]; male, SD, rat, plasma, po, 10 mg/kg, intragastric 10 mg/kg, individual rat, read-out: Cmax", "value": 593, "unit": "ng/mL"}, {"measurement": "MRT", "setting": "[1]; male, SD, rat, plasma, po, 10 mg/kg, intragastric 10 mg/kg, individual rat, read-out: MRT", "value": 3.35, "unit": "h"}, {"measurement": "Tmax", "setting": "[1]; male, SD, rat, plasma, po, 10 mg/kg, intragastric 10 mg/kg, individual rat, read-out: Tmax", "value": 2, "unit": "h"}, {"measurement": "AUC(0-inf)", "setting": "[1]; [8]", "value": 2830, "unit": "ng·h/mL"}, {"measurement": "half-life", "setting": "[1]; [8]", "value": 1.73, "unit": "h"}, {"measurement": "AUC0-t", "setting": "[1]; male, SD, rat, plasma, po, 10 mg/kg, intragastric 10 mg/kg, mean, read-out: AUC0-t", "value": 2650, "unit": "ng·h/mL"}, {"measurement": "Cmax", "setting": "[1]; male, SD, rat, plasma, po, 10 mg/kg, intragastric 10 mg/kg, mean, read-out: Cmax", "value": 702, "unit": "ng/mL"}, {"measurement": "MRT", "setting": "[1]; male, SD, rat, plasma, po, 10 mg/kg, intragastric 10 mg/kg, mean, read-out: MRT", "value": 3.36, "unit": "h"}, {"measurement": "Tmax", "setting": "[1]; male, SD, rat, plasma, po, 10 mg/kg, intragastric 10 mg/kg, mean, read-out: Tmax", "value": 1.33, "unit": "h"}, {"measurement": "pharmacokinetic parameters (overall judgement)", "setting": "[2]; ICR mice, after oral compound 13", "value": "excellent pharmacokinetic parameters"}, {"measurement": "AUMC0-inf", "setting": "[2]; individual mouse", "value": "46297 hr*hr*ng/mL and 13854 hr*hr*ng/mL and 21447 hr*hr*ng/mL"}, {"measurement": "AUMC0-t", "setting": "[2]; individual mouse", "value": "19793 hr*hr*ng/mL and 12189 hr*hr*ng/mL and 16309 hr*hr*ng/mL"}, {"measurement": "Kel", "setting": "[2]; individual mouse", "value": "0.0695 h⁻¹ and 0.156 h⁻¹ and 0.123 h⁻¹"}, {"measurement": "MRTPO", "setting": "[2]; individual mouse", "value": "15.0 h and 6.25 h and 7.99 h"}, {"measurement": "AUMC0-inf", "setting": "[2]; mean", "value": 27199, "unit": "hr*hr*ng/mL"}, {"measurement": "AUMC0-t", "setting": "[2]; mean", "value": 16097, "unit": "hr*hr*ng/mL"}, {"measurement": "Kel", "setting": "[2]; mean", "value": 0.116, "unit": "h⁻¹"}, {"measurement": "MRTPO", "setting": "[2]; mean", "value": "9.76 ± 4.64 h and 9.76 h"}]}]}
